Here are results for six compounds from patent US7731945B2, “Immunotherapy for reversing immune suppression” (Immuno-Rx, Inc., priority 2001, dated 2010).

In data set [1] the test system is endogenous suppression of T cells caused by cancer lesions. Kind of data set: NSAID codelivered for contrasuppression in the NCM regimen. Conditions: for effectiveness as NSAID for blocking endogenous suppression of T cells: codelivery with low dose cyclophosphamide and NCM. In kind it is in vivo, human. The text has this:
It is preferable to block endogenous suppression of T cells, such as caused by various cancer lesions. Blocking is effected by the codelivery of low dose cyclophosphamide and a nonsteroidal anti-inflammatory drug (NSAID). The NSAID of choice is indomethacin. […] Side effects of NSAIDs are to be aggressively treated with […] and a prostaglandin E analog. Zinc and multivitamins are useful agents to help restore T cell immunity. Treatment with contrasuppression and zinc without the NCM is ineffective.

The test system of data set [2] is T lymphocytes. The data set is described as follows: Cytokine induction by OKT-3 and/or PHA plus Ciprofloxacin, cells incubated in flasks. The format is cell-based, human. The text has this: The buffy coat white cells of human blood from multiple HIV-negative hepatitis virus-negative donors is collected. In an alternative embodiment, animals are the cell source for veterinary uses. The cells from the donors are pooled and layered on ficoll hypaque gradients (Pharmacia) to yield lymphocytes free of neutrophils and erythrocytes. Alternative methods could be used that would result in the same starting lymphocyte population as are known in the art.
The lymphocytes are washed and distributed in X vivo-10 media (Whittaker Bioproducts) to surface activated cell culture flasks for selection of cell subsets (MICROCELLECTOR™ T-25 Cell Culture Flasks), which contain immobilized stimulants, i.e., mitogens like PHA. In one set of experiments, X vivo-15 and X vivo-20 media were used as indicated. The immobilization process for the stimulants is as described by the manufacturer for immobilizing various substances for panning procedures, i.e., separating cells, in the flasks. Alternatively, the lymphocytes are exposed to stimulants e.g., PHA for 2-4 hours then washed three times.
The cells are incubated for 24 to 48 hours in X vivo-10 media with 80 μg/ml Ciprofloxacin (Miles Lab) at 37° in a CO2/air incubator. […] Generally, the HSA is used at 0.1 to 0.5% (weight by volume). Following incubation, the supernatants are poured off and collected. Human serum albumin (HSA) may be added to stabilize further the interleukins if HSA-free media is used for generations. The supernatants are store at 4° C. to −70°.

Data set [3] deals with thymocyte and splenocyte. As to conditions: in vivo thymosin α1 5 μg/animal/day, NCM 50 units IL-2 equivalence; FIGS. 21, 22; cited from earlier work.

`Cc1ccc(-c2cc(C(F)(F)F)nn2-c2ccc(S(N)(=O)=O)cc2)cc1` [Celebrex®]: the “effectiveness as NSAID for blocking endogenous suppression of T cells” value (“effectiveness as NSAID” for short) in data set [1] is reported as “less effective”.

As for `CC(C)Cc1ccc(C(C)C(=O)O)cc1` (stereo not shown) [Ibuprofen], the histological responses entry in data set [1] (as NSAID of the regimen) was “characteristic of a TH2 rather than TH1 mediated response”. In addition, the “effectiveness as NSAID” value in data set [1] was “effective”.

For the compound `CS(=O)(=O)c1ccc(C2=C(c3ccccc3)C(=O)OC2)cc1` [Vioxx®], the toxicity result in data set [1] (as NSAID of the regimen) was “causing gastritis in many patients”. Moreover, the “effectiveness as NSAID” value in data set [1] is on record as “less effective”.

Consider `COc1ccc2c(c1)c(CC(=O)O)c(C)n2C(=O)c1ccc(Cl)cc1` [indomethacin], for which the toxicity result in data set [1] (as NSAID of the regimen) was “arguably the most toxic”. The “effectiveness as NSAID” value in data set [1] is on record as “most effective NSAID”.

Turning to “OKT-3: monoclonal antibody (Ortho) which induces T lymphocytes to proliferate and produce interleukins”, in data set [2], the GM-CSF is 75 pg/mL, the IFN-Y came to 11280 pg/mL, the IL-1-β turned out to be 1125 pg/mL and the IL-6 came out at 1980 pg/mL. For the same compound, the TNF-α in data set [2] amounted to 2500 pg/mL.

Consider Thymosin α1, for which the “thymocyte and splenocyte in vitro responses to media, rIL-1, rIL-2 and NCM” value in data set [3] is recorded as “increase many of the responses”.
